Values quoted from earlier work in patent publication US5296468A, “GnRH analogs” (The Salk Institute for Biological Studies, priority 1993, dated 1994).

What was measured:
[1] = background, U.S. Pat. No. 4,072,668
the receptor = molecular target: T1, the receptor (Homo sapiens, UniProt P30968); conditions: background, U.S. Pat. No. 4,072,668
T1 sequence (P30968 1-328): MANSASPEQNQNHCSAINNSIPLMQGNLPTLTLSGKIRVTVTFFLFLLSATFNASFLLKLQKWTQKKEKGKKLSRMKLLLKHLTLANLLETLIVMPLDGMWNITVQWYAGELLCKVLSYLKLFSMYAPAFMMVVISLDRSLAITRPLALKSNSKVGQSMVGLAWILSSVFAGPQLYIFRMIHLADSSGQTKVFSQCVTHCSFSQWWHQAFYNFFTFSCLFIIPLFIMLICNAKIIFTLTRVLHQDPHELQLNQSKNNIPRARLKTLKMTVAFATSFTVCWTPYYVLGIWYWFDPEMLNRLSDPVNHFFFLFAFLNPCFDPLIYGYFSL

Question: With “pGlu-His-Trp-Ser-Tyr-D-Ala-Leu-Arg-Pro-Gly-NH2 [[D-Ala^6]-GnRH]” as the substance, how does the “biological potency compared with the native hormone” value [1] read?
Answer: greater biological potency than the native hormone

Question: And the “binding strength to the receptor compared with the native hormone” value (the receptor)?
Answer: greater binding strength to the receptor
